Values after ≈ are worked out from the molar mass of the structure shown.
Columns and labels:
Streptococcus pneumoniae = test: In vitro antibacterial activity against PRSP.; type: functional
[1] = target: T1, Dipeptidase 1 (Sus scrofa) (UniProt P22412); test: Susceptibility to hog kidney dehydropeptidase-I.; type: functional, tissue-based; design: reference not given here
T1 sequence (whole entry): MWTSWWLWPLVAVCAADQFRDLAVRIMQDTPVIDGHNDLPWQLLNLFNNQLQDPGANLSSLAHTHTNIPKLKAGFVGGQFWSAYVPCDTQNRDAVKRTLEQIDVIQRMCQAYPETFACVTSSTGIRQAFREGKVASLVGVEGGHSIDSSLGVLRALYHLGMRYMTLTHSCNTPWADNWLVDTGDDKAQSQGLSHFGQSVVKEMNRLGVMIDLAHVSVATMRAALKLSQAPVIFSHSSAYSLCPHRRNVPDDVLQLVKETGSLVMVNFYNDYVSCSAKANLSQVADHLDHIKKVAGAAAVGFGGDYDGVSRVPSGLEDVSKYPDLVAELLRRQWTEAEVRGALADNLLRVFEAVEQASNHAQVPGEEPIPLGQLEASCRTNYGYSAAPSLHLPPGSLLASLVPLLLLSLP

Enterococcus faecium [2] = test: In vitro antibacterial activity against MDREFm.; type: functional
Enterococcus faecalis = test: In vitro antibacterial activity against VREFs.; type: functional
Staphylococcus aureus [3] = test: In vitro antibacterial activity against MRSA.; type: functional
Staphylococcus sp. = test: In vitro antibacterial activity against MRCNS.; type: functional
Staphylococcus aureus [4] = test: Effect of 43 mg/mL of Human Serum Albumin, Fraction V (HSA Fr. V) on antimicrobial activity was assessed against MSSA strain MB 2985; type: functional
Staphylococcus aureus [5] = test: Antibacterial activity against Methicillin sensitive Staphylococcus aureus-/+ HSA Fr. V; type: functional
Staphylococcus aureus [6] = test: Antibacterial activity against Methicillin sensitive Staphylococcus aureus; type: functional
Mus musculus = organism: Mus musculus; test: Dose showing no visible effects (ataxia, somnolence) in two mice; type: functional
[7] = Lethal dose defined as as the lowest dose resulting in the death of a single mouse; type: toxicity; details: in vivo
[8] = target: T1, Dipeptidase 1 (Sus scrofa); test: Compound was tested for susceptibility to hog kidney dehydropeptidase-I and expressed as a reaction rate normalized to the rate observed with imipenem (IPM); type: functional, tissue-based
Enterococcus faecium [9] = test: Antibacterial activity against MDREFm; type: functional
Enterococcus faecium [10] = test: Antibacterial activity against VREFs; type: functional
Staphylococcus aureus [11] = test: Effect of 43 mg/mL of Human Serum Albumin, Fraction V (HSA Fr. V) on antimicrobial activity was assessed against Methicillin sensitive Staphylococcus aureus strain MB 2985; type: functional

| MIC (Staphylococcus aureus [4]) [µg/mL] | MIC (Staphylococcus aureus [6]) [µg/mL] | Compound | MIC (Streptococcus pneumoniae) [µg/mL] | Activity [1] | MIC (Enterococcus faecium [2]) [µg/mL] | MIC (Enterococcus faecalis) [µg/mL] | MIC (Staphylococcus aureus [3]) [µg/mL] | MIC (Staphylococcus sp.) [µg/mL] | MIC (Staphylococcus aureus [5]) [µg/mL] | NOEL (Mus musculus) [mg/kg] | Lethal dose [7] [mg/kg] | Activity [8] | MIC (Enterococcus faecium [9]) [µg/mL] | MIC (Enterococcus faecium [10]) [µg/mL] | MIC (Staphylococcus aureus [11]) [µg/mL] |
| --- | --- | --- | --- | --- | --- | --- | --- | --- | --- | --- | --- | --- | --- | --- | --- |
| – | – | CCC[N+]12CC[N+](CCc3ccc4c5c(cccc35)N(CC3=C(C(=O)O)N5C(=O)[C@H]([C@@H](C)O)[C@H]5[C@H]3C)S4(=O)=O)(CC1)CC2.[Cl-].[Cl-] | 0.25 | 1.93 | 6.4 | 16 | 2.2 | 4 | – | – | – | – | – | – | – |
| 64 | – | C[C@@H](O)[C@H]1C(=O)N2C(C(=O)O)=C(CN3c4c(CC[N+]56CC[N+](CC(N)=O)(CC5)CC6)ccc5cccc(c45)S3(=O)=O)[C@H](C)[C@H]12.[Cl-].[Cl-] | > 64 | – | > 64 | > 64 | > 64 | > 64 | 32 | – | – | – | – | – | – |
| 0.125 | – | C[C@@H](O)[C@H]1C(=O)N2C(C(=O)O)=C(CN3c4ccc(C[N+]56CC[N+](CC(N)=O)(CC5)CC6)c5cccc(c45)S3(=O)=O)[C@H](C)[C@H]12.[Cl-].[Cl-] | 1 | 0.81 | 32 | 32 | 4.2 | 12.1 | 0.031 | – | – | – | – | – | – |
| 0.031 | 0.016 | C[C@@H](O)[C@H]1C(=O)N2C(C(=O)O)=C(CN3c4cccc5ccc(C[N+]67CC[N+](CC(N)=O)(CC6)CC7)c(c45)S3(=O)=O)[C@H](C)[C@H]12.[Cl-].[Cl-] | 0.71 | 0.01 | 20.2 | 16 | 2.5 | 4 | – | – | – | – | – | – | – |
| – | – | C[C@@H](O)[C@H]1C(=O)N2C(C(=O)O)=C(CN3c4cccc5cc(CC[N+]67CC[N+](CC(=O)Nc8ccccc8)(CC6)CC7)cc(c45)S3(=O)=O)[C@H](C)[C@H]12.[Cl-].[Cl-] | 0.17 | 0.64 | 3.2 | 8 | 0.2 | 0.3 | – | <61 | 245 | – | – | – | – |
| – | – | C[C@@H](O)[C@H]1C(=O)N2C(C(=O)O)=C(CN3c4cccc5c(CC[N+]67CC[N+](Cc8ccccc8)(CC6)CC7)ccc(c45)S3(=O)=O)[C@H](C)[C@H]12.[Cl-].[Cl-] | 0.35 | – | 6.4 | 8 | 0.9 | 1.3 | – | 63 | 250 | 1.85 | – | – | – |
| – | – | C[C@@H](O)[C@H]1C(=O)N2C(C(=O)O)=C(CN3c4cccc5c(CC[N+]67CC[N+](CC(=O)Nc8ccccc8)(CC6)CC7)ccc(c45)S3(=O)=O)[C@H](C)[C@H]12.[Cl-].[Cl-] | 0.12 | 1.4 | 4 | 4 | 0.8 | 1.5 | – | 31 | 63 | – | – | – | – |
| 0.062 | – | C[C@@H](O)[C@H]1C(=O)N2C(C(=O)O)=C(CN3c4ccc(CC[N+]56CC[N+](CC(N)=O)(CC5)CC6)c5cccc(c45)S3(=O)=O)[C@H](C)[C@H]12.[Cl-].[Cl-] | 1 | 0.74 | 16 | 32 | 8 | 12.1 | 0.062 | – | – | – | – | – | – |
| – | – | C[C@@H](O)[C@H]1C(=O)N2C(C(=O)O)=C(CN3c4cccc5c(CC[N+]67CC[N+](CC(N)=O)(CC6)CC7)ccc(c45)S3(=O)=O)[C@H](C)[C@H]12.[Cl-].[Cl-] | 0.17 | 1.77 | – | – | 0.7 | 1 | 0.016 | 250 | > 500 | – | 4 | 8 | 0.031 |
| – | – | C[C@@H](O)[C@H]1C(=O)N2C(C(=O)O)=C(CN3c4cccc5cc(CC[N+]67CC[N+](CCCO)(CC6)CC7)cc(c45)S3(=O)=O)[C@H](C)[C@H]12.[Cl-].[Cl-] | 0.17 | 0.85 | 4 | 8 | 1.1 | 1.5 | – | – | – | – | – | – | – |
| 0.031 | – | C[C@@H](O)[C@H]1C(=O)N2C(C(=O)O)=C(CN3c4cccc5cc(C[N+]67CC[N+](CC(N)=O)(CC6)CC7)cc(c45)S3(=O)=O)[C@H](C)[C@H]12.[Cl-].[Cl-] | 0.5 | 0.21 | 8 | 16 | 2 | 3 | 0.016 | – | – | – | – | – | – |
| 0.25 | 0.016 | C[C@@H](O)[C@H]1C(=O)N2C(C(=O)[O-])=C(CN3c4cccc5cccc(c45)S3(=O)=O)[C@H](C)[C@H]12.[Na+] | 0.25 | 0.99 | 25.4 | 8 | 0.7 | 3.5 | – | – | – | – | – | – | – |
| – | – | CN[C@H](CC(C)C)C(=O)N[C@H]1C(=O)N[C@@H](CC(N)=O)C(=O)N[C@H]2C(=O)N[C@H]3C(=O)N[C@H](C(=O)N[C@H](C(=O)O)c4cc(O)cc(O)c4-c4cc3ccc4O)[C@H](O)c3ccc(c(Cl)c3)Oc3cc2cc(c3O[C@@H]2O[C@H](CO)[C@@H](O)[C@H](O)[C@H]2O[C@H]2C[C@](C)(N)[C@H](O)[C@H](C)O2)Oc2ccc(cc2Cl)[C@H]1O [VANCOMYCIN] | 0.35 (≈ 0.242 µM) | – | 20.2 (≈ 13.9 µM) | > 64 | 0.9 (≈ 0.621 µM) | 1.7 (≈ 1.17 µM) | – | – | – | – | – | – | – |
| – | – | CCC[N+]12CC[N+](CCc3cc4c5c(cccc5c3)N(CC3=C(C(=O)O)N5C(=O)[C@H]([C@@H](C)O)[C@H]5[C@H]3C)S4(=O)=O)(CC1)CC2.[Cl-].[Cl-] | 0.24 | – | 3.2 | 8 | 1 | 1.5 | – | – | – | – | – | – | – |
| – | – | C[C@@H](O)[C@H]1C(=O)N2C(C(=O)O)=C(CN3c4cccc5c(CC[N+]67CC[N+](CCCO)(CC6)CC7)ccc(c45)S3(=O)=O)[C@H](C)[C@H]12.[Cl-].[Cl-] | 0.5 | 1.9 | 6.4 | 16 | 0.6 | 0.9 | – | 250 | > 500 | – | – | – | – |
| 0.031 | – | C[C@@H](O)[C@H]1C(=O)N2C(C(=O)O)=C(CN3c4cccc5cc(CCC[N+]67CC[N+](CC(N)=O)(CC6)CC7)cc(c45)S3(=O)=O)[C@H](C)[C@H]12.[Cl-].[Cl-] | 0.5 | 1.25 | 6.4 | 16 | 2.2 | 4 | 0.016 | – | – | – | – | – | – |

| Compound | MIC (Staphylococcus aureus [4]) [µg/mL] | MIC (Staphylococcus aureus [6]) [µg/mL] | MIC (Streptococcus pneumoniae) [µg/mL] | Activity [1] | MIC (Enterococcus faecium [2]) [µg/mL] | MIC (Enterococcus faecalis) [µg/mL] | MIC (Staphylococcus aureus [3]) [µg/mL] | MIC (Staphylococcus sp.) [µg/mL] | MIC (Staphylococcus aureus [5]) [µg/mL] | NOEL (Mus musculus) [mg/kg] | Lethal dose [7] [mg/kg] | Activity [8] | MIC (Enterococcus faecium [9]) [µg/mL] | MIC (Enterococcus faecium [10]) [µg/mL] | MIC (Staphylococcus aureus [11]) [µg/mL] |
| --- | --- | --- | --- | --- | --- | --- | --- | --- | --- | --- | --- | --- | --- | --- | --- |
| C[C@@H](O)[C@H]1C(=O)N2C(C(=O)O)=C(CN3c4cccc5c(CCC[N+]67CC[N+](CC(N)=O)(CC6)CC7)ccc(c45)S3(=O)=O)[C@H](C)[C@H]12.[Cl-].[Cl-] | 0.031 | – | 0.25 | 2.64 | 4 | 8 | 2 | 3.5 | 0.016 | 125 | 500 | – | – | – | – |
| C[C@@H](O)[C@H]1C(=O)N2C(C(=O)O)=C(CN3c4cccc5ccc(CC[N+]67CC[N+](CC(N)=O)(CC6)CC7)c(c45)S3(=O)=O)[C@H](C)[C@H]12.[Cl-].[Cl-] | 0.016 | 0.016 | 0.35 | 0 | 10.1 | 8 | 0.9 | 1.2 | – | 16 | 63 | – | – | – | – |
| C[C@@H](O)[C@H]1C(=O)N2C(C(=O)O)=C(SCCNC=N)C[C@H]12 [IMIPENEM ANHYDROUS] | 0.016 (≈ 0.0534 µM) | – | 0.25 (≈ 0.835 µM) | 1 | > 64 | 8 (≈ 26.7 µM) | > 40 | > 64 | 0.016 (≈ 0.0534 µM) | – | – | – | – | – | – |
| C[C@@H](O)[C@H]1C(=O)N2C(C(=O)O)=C(CN3c4cccc5cc(CC[N+]67CC[N+](CC(N)=O)(CC6)CC7)cc(c45)S3(=O)=O)[C@H](C)[C@H]12.[Cl-].[Cl-] | 0.016 | – | 0.17 | 0.75 | 3.2 | 8 | 0.5 | 0.6 | 0.016 | 125 | 500 | – | – | – | – |
| C[C@@H](O)[C@H]1C(=O)N2C(C(=O)O)=C(CN3c4cccc5c(C[N+]67CC[N+](CC(N)=O)(CC6)CC7)ccc(c45)S3(=O)=O)[C@H](C)[C@H]12.[Cl-].[Cl-] | 0.031 | – | 0.5 | 0.74 | 8 | 16 | 1 | 1.5 | 0.031 | 250 | 500 | – | – | – | – |
